Earlier results on 1 compound are cited in PubChem BioAssay AID1259409 (Chemical Carcinogenesis Research Information System (CCRIS), 2018).

Molecules are shown by their SMILES.

For the data set, the system named is rodent chemically induced tumor inhibition, incidence and multiplicity. The data set is described as follows: CCRIS tumor inhibitor studies.

As for `COc1cc(/C=C/C(=O)O)ccc1O`, the “tumour outcome (control, treated, inhibition, significance)” value is listed as 11%, 32%, -190%, not significant (Carcinogen: AZOXYMETHANE [25843-45-2], Dose [Inhibitor]: 0, 500 PPM IN DIET FOR 23 WK BEGINNING POST LAST CARCINOGEN DOSE (STUDY DURATION: 35 WK), Route [Inhibitor]: ORAL, Species: RAT, Strain/Sex: F344/MALE, Target Tissue: Type of Lesion: LARGE INTESTINE: TUMOR, Dose [Carcinogen]: 15 MG/KG 3X/WK FOR 12 WK (STUDY DURATION: 35 WK), Promoter: NONE); 18%, 27%, -50%, not significant (Carcinogen: AZOXYMETHANE [25843-45-2], Dose [Inhibitor]: 0, 500 PPM IN DIET FOR 23 WK BEGINNING POST LAST CARCINOGEN DOSE (STUDY DURATION: 35 WK), Route [Inhibitor]: ORAL, Species: RAT, Strain/Sex: F344/MALE, Target Tissue: Type of Lesion: SMALL INTESTINE: TUMOR, Dose [Carcinogen]: 15 MG/KG 3X/WK FOR 12 WK (STUDY DURATION: 35 WK), Promoter: NONE); 59%, 32%, 46%, not significant (Carcinogen: AZOXYMETHANE [25843-45-2], Dose [Inhibitor]: 250 PPM IN DIET FOR 4 WK BEGINNING 1 WK PRIOR TO FIRST CARCINOGEN DOSE (STUDY DURATION: 35 WK), Route [Inhibitor]: ORAL, Species: RAT, Strain/Sex: F344/MALE, Target Tissue: Type of Lesion: LARGE INTESTINE: TUMOR, Dose [Carcinogen]: 15 MG/KG 1X/WK FOR 3 WK (STUDY DURATION: 35 WK), Promoter: NONE); 23%, 5%, 78%, not significant (Carcinogen: AZOXYMETHANE [25843-45-2], Dose [Inhibitor]: 250 PPM IN DIET FOR 4 WK BEGINNING 1 WK PRIOR TO FIRST CARCINOGEN DOSE (STUDY DURATION: 35 WK), Route [Inhibitor]: ORAL, Species: RAT, Strain/Sex: F344/MALE, Target Tissue: Type of Lesion: SMALL INTESTINE: TUMOR, Dose [Carcinogen]: 15 MG/KG 1X/WK FOR 3 WK (STUDY DURATION: 35 WK), Promoter: NONE); 59%, 41%, 31%, not significant (Carcinogen: AZOXYMETHANE [25843-45-2], Dose [Inhibitor]: 250 PPM IN DIET FOR 31 WK BEGINNING 1 WK POST LAST CARCINOGEN DOSE (STUDY DURATION: 35 WK), Route [Inhibitor]: ORAL, Species: RAT, Strain/Sex: F344/MALE, Target Tissue: Type of Lesion: LARGE INTESTINE: TUMOR, Dose [Carcinogen]: 15 MG/KG 1X/WK FOR 3 WK (STUDY DURATION: 35 WK), Promoter: NONE); 23%, 23%, 0%, not significant (Carcinogen: AZOXYMETHANE [25843-45-2], Dose [Inhibitor]: 250 PPM IN DIET FOR 31 WK BEGINNING 1 WK POST LAST CARCINOGEN DOSE (STUDY DURATION: 35 WK), Route [Inhibitor]: ORAL, Species: RAT, Strain/Sex: F344/MALE, Target Tissue: Type of Lesion: SMALL INTESTINE: TUMOR, Dose [Carcinogen]: 15 MG/KG 1X/WK FOR 3 WK (STUDY DURATION: 35 WK), Promoter: NONE). Also, the “tumour outcome (control, treated, inhibition, significance)” value is recorded as 59%, 32%, 46%, not significant (Carcinogen: AZOXYMETHANE [25843-45-2], Dose [Inhibitor]: 500 PPM IN DIET FOR 4 WK BEGINNING 1 WK PRIOR TO FIRST CARCINOGEN DOSE (STUDY DURATION: 35 WK), Route [Inhibitor]: ORAL, Species: RAT, Strain/Sex: F344/MALE, Target Tissue: Type of Lesion: LARGE INTESTINE: TUMOR, Dose [Carcinogen]: 15 MG/KG 1X/WK FOR 3 WK (STUDY DURATION: 35 WK), Promoter: NONE); 23%, 5%, 78%, not significant (Carcinogen: AZOXYMETHANE [25843-45-2], Dose [Inhibitor]: 500 PPM IN DIET FOR 4 WK BEGINNING 1 WK PRIOR TO FIRST CARCINOGEN DOSE (STUDY DURATION: 35 WK), Route [Inhibitor]: ORAL, Species: RAT, Strain/Sex: F344/MALE, Target Tissue: Type of Lesion: SMALL INTESTINE: TUMOR, Dose [Carcinogen]: 15 MG/KG 1X/WK FOR 3 WK (STUDY DURATION: 35 WK), Promoter: NONE); 59%, 36%, 39%, not significant (Carcinogen: AZOXYMETHANE [25843-45-2], Dose [Inhibitor]: 500 PPM IN DIET FOR 31 WK BEGINNING 1 WK POST LAST CARCINOGEN DOSE (STUDY DURATION: 35 WK), Route [Inhibitor]: ORAL, Species: RAT, Strain/Sex: F344/MALE, Target Tissue: Type of Lesion: LARGE INTESTINE: TUMOR, Dose [Carcinogen]: 15 MG/KG 1X/WK FOR 3 WK (STUDY DURATION: 35 WK), Promoter: NONE); 23%, 27%, -17%, not significant (Carcinogen: AZOXYMETHANE [25843-45-2], Dose [Inhibitor]: 500 PPM IN DIET FOR 31 WK BEGINNING 1 WK POST LAST CARCINOGEN DOSE (STUDY DURATION: 35 WK), Route [Inhibitor]: ORAL, Species: RAT, Strain/Sex: F344/MALE, Target Tissue: Type of Lesion: SMALL INTESTINE: TUMOR, Dose [Carcinogen]: 15 MG/KG 1X/WK FOR 3 WK (STUDY DURATION: 35 WK), Promoter: NONE); 100%, 90%, 10%, not significant (Carcinogen: BENZO[A]PYRENE, 50-32-8, Dose [Inhibitor]: 0.06 MMOL/G OF DIET DAILY STARTING 8 D BEFORE AND CONTINUING THROUGH 3 D AFTER CARCINOGEN TREATMENT FOLLOWED BY OBSERVAT, Route [Inhibitor]: ORAL, Species: MOUSE, Strain/Sex: ICR/FEMALE, Target Tissue: Type of Lesion: FORESTOMACH: NEOPLASM, Dose [Carcinogen]: 1 MG IN 0.2 ML CORN OIL 2/WK FOR 4 WK, Promoter: NONE USED); 18/18 (100%), 18/18 (100%), 0%, not significant (Carcinogen: BENZO[A]PYRENE, 50-32-8, Dose [Inhibitor]: 100 MG/KG ADMINISTERED 1 HR BEFORE AND 6, 24, 48 AND 72 HR AFTER BENZO[A]PYRENE TREATMENT (STUDY DURATION: 6 MO), Route [Inhibitor]: INTRAPERITONEAL, Species: MOUSE, Strain/Sex: STRAIN-A/MALE, Target Tissue: Type of Lesion: LUNG: ADENOMA, Dose [Carcinogen]: 100 MG/KG ONCE, Promoter: NONE USED). The “tumour outcome (control, treated, inhibition, significance)” value is given as 18/18 (100%), 18/18 (100%), 0%, not significant (Carcinogen: BENZO[A]PYRENE, 50-32-8, Dose [Inhibitor]: 100 MG/KG ADMINISTERED 1 HR BEFORE AND 6, 24, 48 AND 72 HR AFTER CARCINOGEN TREATMENT FOLLOWED BY 6 MO OBSERVATION PERIO, Route [Inhibitor]: INTRAPERITONEAL, Species: MOUSE, Strain/Sex: STRAIN A/MALE, Target Tissue: Type of Lesion: LUNG: ADENOMA, Dose [Carcinogen]: 100 MG/KG ONCE, Promoter: NONE USED) and 9/15 (60%), 1/14 (7%), 88%, p=0.0035 (Carcinogen: N-NITROQUINOLINE-1-OXIDE, 56-57-5, Dose [Inhibitor]: 0, 500 PPM IN DIET FOR 7 WK BEGINNING 1 WK PRIOR TO START OF CARCINOGEN TREATMENT (STUDY DURATION: 32 WK), Route [Inhibitor]: ORAL, Species: RAT, Strain/Sex: F344\MALE, Target Tissue: Type of Lesion: TONGUE: CARCINOMA, Dose [Carcinogen]: 20 PPM IN DRINKING WATER FOR 5 WK, Promoter: NONE USED).
